According to ChEMBL document CHEMBL4402554, “Discovery of a Bromodomain and Extraterminal Inhibitor with a Low Predicted Human Dose through Synergistic Use of Encoded Library Technology and Fragment Screening” (J Med Chem, 2020):
“And” between values parts separate entries of the source, which are not always exact repeats. Equal entries are not always repeated. One block for each compound: values may come before it. The source made the active and inactive calls. The rule behind the calls is not given here.

What was measured:
Blood [1] = test: Inhibition of LPS-induced IL6 production in human whole blood preincubated for 30 mins followed by LPS addition measured after 18 to 24 hrs; type: functional, tissue-based
Blood [2] = test: Inhibition of LPS-induced MCP1 production in human whole blood preincubated for 30 mins followed by LPS addition measured after 18 to 24 hrs; type: functional, tissue-based
[3] = target: Bromodomain adjacent to zinc finger domain protein 2A (Homo sapiens, UniProt Q9UIF9); test: Inhibition of BAZ2A (unknown origin) by TR-FRET assay
Sequence of Bromodomain adjacent to zinc finger domain protein 2A (Q9UIF9 whole entry, the tested form may be a part): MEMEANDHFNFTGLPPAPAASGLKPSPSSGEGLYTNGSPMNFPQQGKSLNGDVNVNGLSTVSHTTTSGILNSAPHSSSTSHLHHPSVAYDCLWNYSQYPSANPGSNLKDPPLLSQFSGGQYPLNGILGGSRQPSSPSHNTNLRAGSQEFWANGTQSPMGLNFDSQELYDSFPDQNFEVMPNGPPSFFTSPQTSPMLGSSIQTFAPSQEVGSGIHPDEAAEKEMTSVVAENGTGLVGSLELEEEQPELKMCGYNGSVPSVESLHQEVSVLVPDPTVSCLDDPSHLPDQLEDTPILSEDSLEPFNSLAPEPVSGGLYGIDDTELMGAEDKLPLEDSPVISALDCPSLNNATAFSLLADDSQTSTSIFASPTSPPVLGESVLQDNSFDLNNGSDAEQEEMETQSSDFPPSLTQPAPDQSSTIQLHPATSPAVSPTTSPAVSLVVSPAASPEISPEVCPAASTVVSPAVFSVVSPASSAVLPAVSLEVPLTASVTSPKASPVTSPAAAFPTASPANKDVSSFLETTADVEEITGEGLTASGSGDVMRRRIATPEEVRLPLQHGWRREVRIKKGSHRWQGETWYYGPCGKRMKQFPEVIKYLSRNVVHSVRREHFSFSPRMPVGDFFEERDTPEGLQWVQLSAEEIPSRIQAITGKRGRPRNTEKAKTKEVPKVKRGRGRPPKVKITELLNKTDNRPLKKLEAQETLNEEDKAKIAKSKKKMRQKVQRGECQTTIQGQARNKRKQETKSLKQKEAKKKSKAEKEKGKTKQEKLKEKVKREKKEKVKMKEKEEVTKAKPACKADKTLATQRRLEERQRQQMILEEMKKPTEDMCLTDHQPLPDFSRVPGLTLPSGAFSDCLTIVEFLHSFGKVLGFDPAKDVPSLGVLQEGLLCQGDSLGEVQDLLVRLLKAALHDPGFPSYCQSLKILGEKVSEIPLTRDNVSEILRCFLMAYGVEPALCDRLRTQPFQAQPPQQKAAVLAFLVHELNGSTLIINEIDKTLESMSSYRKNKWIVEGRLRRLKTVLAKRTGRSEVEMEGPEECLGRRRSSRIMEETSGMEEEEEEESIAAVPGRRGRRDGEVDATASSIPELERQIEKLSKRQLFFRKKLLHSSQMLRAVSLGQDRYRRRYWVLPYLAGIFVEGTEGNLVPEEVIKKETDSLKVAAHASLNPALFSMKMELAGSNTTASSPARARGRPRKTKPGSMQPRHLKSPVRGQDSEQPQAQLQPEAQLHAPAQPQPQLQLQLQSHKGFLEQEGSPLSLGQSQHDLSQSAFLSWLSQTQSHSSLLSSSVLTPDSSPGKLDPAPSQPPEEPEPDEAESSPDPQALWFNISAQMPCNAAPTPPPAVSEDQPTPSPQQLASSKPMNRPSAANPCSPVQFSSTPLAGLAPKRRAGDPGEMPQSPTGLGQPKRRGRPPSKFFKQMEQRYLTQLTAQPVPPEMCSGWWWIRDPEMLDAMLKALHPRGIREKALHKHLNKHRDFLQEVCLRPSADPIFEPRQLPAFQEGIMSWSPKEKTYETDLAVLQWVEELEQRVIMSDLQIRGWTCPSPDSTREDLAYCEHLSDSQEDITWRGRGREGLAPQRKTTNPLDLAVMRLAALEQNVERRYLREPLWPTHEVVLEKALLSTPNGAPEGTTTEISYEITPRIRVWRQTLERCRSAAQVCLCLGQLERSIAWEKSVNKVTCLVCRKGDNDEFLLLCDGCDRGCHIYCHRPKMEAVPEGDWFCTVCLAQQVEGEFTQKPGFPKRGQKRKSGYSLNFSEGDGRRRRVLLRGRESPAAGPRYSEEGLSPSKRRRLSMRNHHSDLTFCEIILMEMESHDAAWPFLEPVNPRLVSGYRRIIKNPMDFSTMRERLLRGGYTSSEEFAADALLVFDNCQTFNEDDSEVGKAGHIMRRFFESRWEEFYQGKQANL

[4] = Metabolic stability in rat liver microsomes; type: ADME, Microsome
[5] = Stability in rat hepatocytes; type: ADME, cell-based, Hepatocyte
[6] = Fraction unbound in rat plasma at 1 mg/kg, iv; type: ADME, organism-based
[7] = Unbound clearance in rat at 1 mg/kg, iv; type: ADME, organism-based; details: in vivo
[8] = Clearance in rat at 1 mg/kg, iv; type: ADME, organism-based; details: in vivo
[9] = Volume of distribution at steady state in rat at 1 mg/kg, iv; type: ADME, organism-based; details: in vivo, read-out: Vdss
[10] = Half life in rat at 1 mg/kg, iv; type: ADME, organism-based; details: in vivo
[11] = Metabolic stability in dog liver microsomes; type: ADME, Canis lupus familiaris, Microsome
[12] = Stability in dog hepatocytes; type: ADME, cell-based, Canis lupus familiaris, Hepatocyte
[13] = Fraction unbound in dog plasma at 0.5 mg/kg, iv; type: ADME, organism-based, Canis lupus familiaris
[14] = Unbound clearance in dog at 0.5 mg/kg, iv; type: ADME, organism-based, Canis lupus familiaris; details: in vivo
[15] = Volume of distribution at steady state in dog at 0.5 mg/kg, iv; type: ADME, organism-based, Canis lupus familiaris; details: in vivo; for Vd: read-out: Vdss
[16] = Half life in dog at 0.5 mg/kg, iv; type: ADME, organism-based, Canis lupus familiaris; details: in vivo
[17] = Oral bioavailability in dog at 1 mg/kg; type: ADME, organism-based, Canis lupus familiaris; details: in vivo
[18] = Metabolic stability in human liver microsomes; type: ADME, Microsome
[19] = Stability in human hepatocytes; type: ADME, cell-based, Hepatocyte
[20] = Fraction unbound in human plasma; type: ADME, cell-free
[21] = Metabolic stability in CD-1 mouse liver microsomes; type: ADME, Microsome
[22] = Stability in CD-1 mouse hepatocytes; type: ADME, cell-based, Hepatocyte
[23] = AUC (0 to infinity) in CD-1 mouse at 3 mg/kg, po; type: ADME, organism-based; set-up: dose 3 mg/kg, route oral, time infinity; details: in vivo
[24] = AUC (0 to infinity) in rat at 3 mg/kg, po; type: ADME, organism-based; set-up: dose 3 mg/kg, route oral, time infinity; details: in vivo
[25] = AUC (0 to infinity) in rat at 30 mg/kg, po; type: ADME, organism-based; set-up: dose 30 mg/kg, route oral, time infinity; details: in vivo
[26] = Oral bioavailability in rat at 30 mg/kg; type: ADME, organism-based; details: in vivo
[27] = AUC (0 to infinity) in dog at 1.5 mg/kg, po; type: ADME, organism-based, Canis lupus familiaris; set-up: dose 1.5 mg/kg, route oral, time infinity; details: in vivo
Mus musculus [28] = test: Antiinflammatory activity in LPS-challenged CD-1 mouse assessed as reduction in cytokine production at 1 to 10 mg/kg, po administrated as single dose 30 mins prior to LPS challenge measured after 5 hrs by immunoassay; type: functional, organism-based
Mus musculus [29] = test: Antiinflammatory activity in TNP-KLH- treated CD-1 mouse T cell-dependent immunization model assessed as IgG1 level at 3 mg/kg, po qd treated for 0.5 hrs followed by TNP-KLH treatment and measured after 14 days by ELISA analysis; type: functional
Mus musculus [30] = test: Antiinflammatory activity in TNP-KLH- treated CD-1 mouse T cell-dependent immunization model assessed as IgG1 level at 0.3 mg/kg, po qd treated for 0.5 hrs followed by TNP-KLH treatment and measured after 14 days by ELISA analysis; type: functional
Mus musculus [31] = test: Antiinflammatory activity in TNP-KLH- treated CD-1 mouse T cell-dependent immunization model assessed as IgG1 level at 3 mg/kg, po qod treated for 0.5 hrs followed by TNP-KLH treatment and measured after 14 days by ELISA analysis; type: functional
[32] = Oral bioavailability in rat at 3 mg/kg; details: in vivo
[33] = target: T1, Bromodomain-containing protein 4 (Homo sapiens, UniProt O60885, Y390A); test: Displacement of Alexa Fluor 647 labelled ligand from recombinant human N-terminal His6-tagged BRD4 BD1 (1 to 477 residues)/BD2 Y390A mutant incubated for 30 mins by TR-FRET assay
Homo sapiens = species on record: Homo sapiens; test: Selectivity ratio of pIC50 for Alexa Fluor 647 labelled ligand from recombinant human N-terminal His6-tagged BRD4 BD1 (1 to 477 residues)/BD2 Y390A mutant to pIC50 for BAZ2A (unknown origin)
[34] = Lipophilicity, log D of the compound at pH 7.4 by chromatographic method; type: physicochemical; details: buffer
[35] = Solubility of compound in pH 6.5 FASSIF at 1 mg incubated for 4 hrs by HPLC-UV analysis; type: physicochemical
[36] = target: T1, Bromodomain-containing protein 4; test: Displacement of Alexa Fluor 647 labelled ligand from recombinant human N-terminal His6-tagged BRD4 BD1 (1 to 477 residues)/BD2 Y390A mutant incubated for 60 mins by fluorescence polarization assay
[37] = Clearance in dog at 0.5 mg/kg, iv; type: ADME, organism-based, Canis lupus familiaris; details: in vivo

SMILES: COCC(COC)n1c(-c2cc(C)c(=O)n(C)c2)nc2cc(N3CCOCC3)ccc21
IC50 (Blood [1]): 20 nM | IC50 (Blood [2]): 25.1 nM | IC50 [3]: 63100 nM | Stability [4]: < 0.46 mL/min/g | Stability [5]: < 0.8 mL/min/g | fraction unbound [6]: 0.69 | CL free [7]: 24 mL/min/kg | clearance [8]: 17 mL/min/kg | Vd [9]: 2.3 L/kg | half-life [10]: 3.8 h | Stability [11]: < 0.37 mL/min/g | Stability [12]: < 1.3 mL/min/g | fraction unbound [13]: 0.5 | CL free [14]: 4 mL/min/kg | Vdss [15]: 0.9 L/kg | t1/2 [16]: 5.3 h | bioavailability [17]: 101% | Stability [18]: < 0.4 mL/min/g | Stability [19]: < 0.87 mL/min/g | fraction unbound [20]: 0.72 | Stability [21]: < 0.48 mL/min/g | Stability [22]: < 1 mL/min/g | AUC(0-inf) [23]: 3620 ng·h/mL | AUC(0-inf) [24]: 2610 ng·h/mL | AUC(0-inf) [25]: 27000 ng·h/mL | bioavailability [26]: 93% | AUC(0-inf) [27]: 12500 ng·h/mL | Activity (Mus musculus [28]): Active | Activity (Mus musculus [29]): 20% | Activity (Mus musculus [30]): 65% | Activity (Mus musculus [31]): 65% | bioavailability [32]: 94%

SMILES: Cc1cc(-c2nc3ccccc3n2CC2CC3(COC3)C2)cn(C)c1=O
IC50 [33]: 50.1 nM | IC50 [3]: 63100 nM | Stability [4]: 0.99 mL/min/g | Stability [18]: < 0.4 mL/min/g | Ratio pIC50 (Homo sapiens): 3.1

SMILES: Cc1cc(-c2nc3ccccc3n2C(C)C2CCOCC2)cn(C)c1=O (configuration not stated)
Ratio pIC50 (Homo sapiens): 1.4 and 0.9

SMILES: Cn1cc(-c2nc[nH]c2-c2ccc(F)cc2)ccc1=O
IC50 [33]: 6310 nM

SMILES: Cc1cc(-c2nc3ccccc3n2CC2CCOCC2)cn(C)c1=O
IC50 (Blood [1]): 200 nM | IC50 (Blood [2]): 251 nM | IC50 [3]: 316 nM | solubility at 4 h [35]: > 1000 µg/mL | Stability [4]: 3.2 mL/min/g | Stability [5]: 17 mL/min/g | fraction unbound [6]: 0.55 | CL free [7]: 149 mL/min/kg | clearance [8]: 82 mL/min/kg | Vd [9]: 1.4 L/kg | half-life [10]: 0.2 h | Stability [11]: < 0.37 mL/min/g | Stability [12]: < 1.3 mL/min/g | fraction unbound [13]: 0.47 | clearance [37]: 8 mL/min/kg | CL free [14]: 17 mL/min/kg | Vd [15]: 1.4 L/kg | half-life [16]: 2.3 h | bioavailability [17]: 97% | Stability [18]: 0.83 mL/min/g | Stability [19]: < 0.87 mL/min/g | fraction unbound [20]: 0.4

SMILES: COCC(C)n1c(-c2cc(C)c(=O)n(C)c2)nc2ccccc21 (racemic)
IC50 [33]: 316 nM | IC50 [3]: 39800 nM | Ratio pIC50 (Homo sapiens): 2.1

SMILES: Cc1cc(-c2nc3ccccc3n2CCC2CCOCC2)cn(C)c1=O
IC50 [33]: 50.1 nM | IC50 [3]: 39800 nM | Ratio pIC50 (Homo sapiens): 2.9

SMILES: Cc1cc(-c2nc3ccccc3n2C[C@H]2CC[C@H](O)CC2)cn(C)c1=O
IC50 [33]: 79.4 nM | IC50 [3]: 50100 nM | Ratio pIC50 (Homo sapiens): 2.8

SMILES: Cc1cc(-c2nc3ccccc3n2CC2CCCOC2)cn(C)c1=O (configuration not stated)
IC50 [33]: 31.6 nM and 25.1 nM | IC50 [3]: 25100 nM and 79400 nM

SMILES: COCC(COC)n1c(-c2cc(C)c(=O)n(C)c2)nc2ccccc21
IC50 [33]: 39.8 nM | IC50 [3]: > 100000 nM | Stability [4]: < 0.46 mL/min/g | Stability [5]: 1.1 mL/min/g | fraction unbound [6]: 0.59 | CL free [7]: 63 mL/min/kg | clearance [8]: 37 mL/min/kg | Vd [9]: 2.1 L/kg | half-life [10]: 3.2 h | Stability [11]: < 0.37 mL/min/g | Stability [12]: < 1.3 mL/min/g | fraction unbound [13]: 0.57 | clearance [37]: 5 mL/min/kg | CL free [14]: 9 mL/min/kg | Vd [15]: 0.8 L/kg | half-life [16]: 1.7 h | bioavailability [17]: 46% | Stability [18]: < 0.4 mL/min/g | Stability [19]: < 0.87 mL/min/g | fraction unbound [20]: 0.37 | Ratio pIC50 (Homo sapiens): > 3.7 | bioavailability [32]: 46%

SMILES: CCC(C1CCOCC1)n1c(-c2cc(C)c(=O)n(C)c2)nc2ccccc21 (configuration not stated)
IC50 [33]: 794 nM and 158 nM | Ratio pIC50 (Homo sapiens): > 2.1 and 1.6

The next lines start with the values.

IC50 [33]: 501 nM
SMILES: CC(=O)N[C@H]1CC[C@@H](Cn2c(-c3cc(C)c(O)c(C)c3)nc3ccccc32)CC1

IC50 [33]: 10 nM | chromatographic logD [34]: 2.3 | IC50 (Blood [2]): 12.6 nM | solubility at 4 h [35]: > 1000 µg/mL
SMILES: Cc1cc(-c2nc3cc(N4CCOCC4)ccc3n2CC2CCOCC2)cn(C)c1=O

IC50 [36]: 251 nM | chromatographic logD [34]: 2
SMILES: CNC(=O)c1ccc2c(c1)nc(-c1cc(C)c(O)c(C)c1)n2CC1CCN(C(C)=O)CC1

IC50 [33]: 1580 nM
SMILES: CC(=O)N1CC(Cn2c(-c3cc(C)c(O)c(C)c3)nc3ccccc32)C1

IC50 [33]: 501 nM
SMILES: CC(=O)N1CCC(Cn2c(-c3cc(C)c(O)c(C)c3)nc3ccccc32)CC1

IC50 [33]: 1580 nM
SMILES: CC(=O)N1CCC(n2c(-c3cc(C)c(O)c(C)c3)nc3ccccc32)CC1

IC50 [33]: 1580 nM
SMILES: CC(=O)N[C@H]1CC[C@H](Cn2c(-c3cc(C)c(O)c(C)c3)nc3ccccc32)CC1

IC50 [33]: > 50100 nM
SMILES: O=C(CO)N1CCC(Cn2c(-c3ccc(=O)[nH]c3)nc3ccccc32)CC1

IC50 [33]: 2000 nM | chromatographic logD [34]: 0.8
SMILES: CNC(=O)c1ccc2c(c1)nc(-c1cc(C)c(O)c(C)c1)n2CC1CCNCC1

IC50 [36]: 126 nM | IC50 [33]: 200 nM | chromatographic logD [34]: 3.2
SMILES: CNC(=O)c1ccc2c(c1)nc(-c1cc(C)c(O)c(C)c1)n2CC1CCN(C(=O)c2ccccc2)CC1

IC50 [33]: 7940 nM
SMILES: Cn1cc(-c2nc3ccccc3n2CC2CCN(C(=O)CO)CC2)ccc1=O

IC50 [33]: 1580 nM
SMILES: Cc1cc(-c2nc3ccccc3n2CC2CCN(C(=O)CO)CC2)c[nH]c1=O

chromatographic logD [34]: 2.9
SMILES: Cc1cc(-c2nc3cc(N(C)C)ccc3n2CC2CCOCC2)cn(C)c1=O

IC50 [33]: 2510 nM
SMILES: CC(=O)N1CCC(Cn2c(-c3cc(C)c(O)c(C)c3)nc3ccccc32)C1 (racemic)
